Reference: PMC10914731, “Homo-BacPROTAC-induced degradation of ClpC1 as a strategy against drug-resistant mycobacteria” (Nature Communications, 2024)
Converted amounts (≈) assume the structure as drawn. “And” between values parts separate entries of the source, which are not always exact repeats. Equal values may be shown once. Read-outs that look alike come from different tables or passages of the source.

Legend:
[1] = tested on: non-replicating cells of Mtb H37Rv; format: cell-based, Mycobacterium tuberculosis; conditions: for Supplementary Figure 2 dose-response value, starvation-induced non-replicating H37Rv cells: three replicate columns
Klebsiella pneumoniae = experiment: MIC ESKAPES panel, Klebsiella pneumoniae; format: cell-based
Protocol: Minimum inhibitory concentration (MIC) against ESKAPES panel of Gram positive and Gram negative pathogens (Enterococcus faecium, Staphylococcus aureus, Klebsiella pneumoniae, Acinetobacter baumannii, Pseudomonas aeruginosa, Enterobacter cloacae and Salmonella typhimurium [ESKAPES panel]) were determined at the FNDR by the standard broth dilution method [CLSI, M100]. […] Mueller Hinton broth (MHB) medium was used to grow ESKAPES panel strains. The individual cultures were added as 200 μL (inoculum of 3–7 × 10^5 cfu/ml) to the respective assay plates in each well to all columns, except the media control (200 μL of medium). […] The assay plates were incubated at 37 °C, and the results were noted on the 2nd day as turbidometric readout. The clear wells indicated inhibition of growth, while the turbid wells indicated uninhibited growth.

in vivo = format: in vivo, BALB/cAnNCrl mice; conditions: for Plasma concentration 6 h / Plasma concentration 24 h / AUC0-inf/Dose / AUC0-t/Dose / CL / CL PL QH / Cmax/Dose / MRT / Plasma concentration 0.1 h / Plasma concentration 0.5 h / Plasma concentration 1 h / Plasma concentration 2 h / Plasma concentration 4 h / Vss / t1/2: iv bolus; for Plasma concentration 6 h / Plasma concentration 24 h: BLOQ <1.00 nmol/l
Protocol: The in-life experimental procedures were conducted in strict compliance with German and European animal welfare legislation in an AAALAC-accredited facility. Male BALB/cAnNCrl mice (Charles River Laboratories Research Models and Services, 97633 Sulzfeld, Germany) were used. Animals were 9 weeks old at dosing with a body weight of 21.6–24.3 g. Animals were delivered free of pathogens according to FELASA recommendations with a health certificate provided by the breeder. Upon receipt, the state of health and sex was checked. Animals acclimatized for at least 5 days before the commencement of the in-life phase. During acclimation, animals were group-housed in individually ventilated cages, on birch wood granulate bedding with species-specific enrichment (nesting material, mouse igloo, gnawing wood). During experimental conduct, animals were housed in conventional cages with elevated grid floors. Grid floor was used to avoid contamination with test item material excreted via urine and feces and subsequent reuptake during fur grooming. No bedding and enrichment were provided except a cage divider, which can be used as a shelter. Animals always had unlimited access to food and water and received a pelleted, total pathogen-free maintenance diet and tap drinking water, sterilized by filter.
In case of incomplete dissolution, the formulation was filtered at 40 °C (non-pyrogenic sterile-R filter, 0.2 µm). All formulations were stirred warm until administration. Actual test item content was determined bioanalytically.
Male BALB/cAnNCrl mice (n = 3 per test item and administration route) received a bolus dose of the formulated test item(s) (1 mg/kg iv, 30 mg/kg po) at t = 0 h, and whole blood samples were collected subsequently (35 µl at 0.1 (iv) / 0.25 (po), 0.5, 1, 2, 4, 6 h; 600 µl at sacrifice after 24 h). Animals were euthanized by exsanguination in deep isoflurane anesthesia. Whole blood samples were immediately stored on ice at about 4 °C. Plasma was separated by centrifugation at approximately 10,000 × g for 5 m at +4 °C. Centrifugation of each blood sample was started within 10 m after collection. A single aliquot of at least 15 µL of plasma was prepared and immediately stored at −20 ± 5 °C.
Sample proteins were precipitated with ACN (1 + 12, v/v) containing internal standard, and supernatants analyzed by quantitative UPLC-MS/MS: Phenomenex Luna Omega C18, 2.1 × 50 mm, 1.6 µm, 40 °C, gradient between 10% - 90% ACN with 0.1% formic acid. LogD determination: Lipophilicity of the test items, expressed as chromLogD7.5, was assessed by measuring their chromatographic retention times on C18-material. The chromatographic retention versus logD7.5 values of a series of thirteen n-alkan-2-ones (2-butanone – 2-hexadecanone) served as lipophilicity calibration.

[2] = tested on: M. tuberculosis H37Rv (ATCC 27294); experiment: microbe, parasite or virus in culture; format: cell-based
Msm 607 = experiment: microbe, parasite or virus in culture; format: cell-based
Mtb # 11291 = experiment: microbe, parasite or virus in culture; format: cell-based
[3] = dose-normalized, mice, 1 mg kg-1 iv bolus
[4] = individual animals 1-3, listed as 8 (UdSBI-0545)

With `COC(c1ccccc1)C1NC(=O)C(C)NC(=O)C(CC(C)CO)N(C)C(=O)C(Cc2cn(Cc3cn(CCOCCOCCOCCOCCn4cc(Cn5cc(CC6NC(=O)C(C(C)C)NC(=O)C(CC(C)C)N(C)C(=O)C(C(C)C)NC(=O)C(C(OC)c7ccccc7)NC(=O)C(C)NC(=O)C(CC(C)CO)N(C)C6=O)c6ccccc65)nn4)nn3)c3ccccc23)NC(=O)C(C(C)C)NC(=O)C(CC(C)C)N(C)C(=O)C(C(C)C)NC1=O` (stereo not drawn) [Compound 8] the “Supplementary Figure 2 dose-response value, starvation-induced non-replicating H37Rv cells” value ([1]; Conc. 0.0488281 µM) was 101.903 and 93.5529 and 95.5846, the “Supplementary Figure 2 dose-response value, starvation-induced non-replicating H37Rv cells” value ([1]; Conc. 0.195312 µM) was 93.6246 and 84.7332 and 86.7409 and the “Supplementary Figure 2 dose-response value, starvation-induced non-replicating H37Rv cells” value ([1]; Conc. 0.390625 µM) was 90.2545 and 83.1636 and 86.2868. For the same compound, the “Supplementary Figure 2 dose-response value, starvation-induced non-replicating H37Rv cells” value ([1]; Conc. 0.78125 µM) was 91.9834 and 86.6134 and 81.2993, the “Supplementary Figure 2 dose-response value, starvation-induced non-replicating H37Rv cells” value ([1]; Conc. 1.5625 µM) was 90.366 and 86 and 85.5618 and the “Supplementary Figure 2 dose-response value, starvation-induced non-replicating H37Rv cells” value ([1]; Conc. 3.125 µM) was 93.9114 and 69.2927 and 87.5137. For the same compound, the “Supplementary Figure 2 dose-response value, starvation-induced non-replicating H37Rv cells” value ([1]; Conc. 6.25 µM) was 87.458 and 76.4871 and 82.7732, the “Supplementary Figure 2 dose-response value, starvation-induced non-replicating H37Rv cells” value ([1]; Conc. 25 µM) was 86.1354 and 89.2267 and 87.4022 and the “Supplementary Figure 2 dose-response value, starvation-induced non-replicating H37Rv cells” value ([1]; Conc. 50 µM) was 91.1707 and 85.8088 and 84.3747. For the same compound, the “Supplementary Figure 2 dose-response value, starvation-induced non-replicating H37Rv cells” value ([1]; Conc. 100 µM) was 92.3658 and 81.0443 and 90.6608, the “inhibitory activity on non-growing Mtb H37Rv” value ([1]; starvation for three weeks, result in words) was “lost their inhibitory activity” and the MIC (Klebsiella pneumoniae; Gram-Negative Bacteria, replicates 1-3, listed as 8 (UdSBI-0545)) was over 50 µM. For the same compound, the MIC (Klebsiella pneumoniae; Klebsiella pneumoniae, Gram negative, n = 3 well replicates) was over 50 µM, the MIC (Klebsiella pneumoniae; Klebsiella pneumoniae, Gram-Negative Bacteria, replicates 1-3) was over 109 µg/mL and the AUC (in vivo; [3]) was 8580 h nM/(nmol kg-1). For the same compound, the Cmax (in vivo; [3]) was 6710 nM/(nmol kg-1), the “Plasma concentration 6 h” value (in vivo; [4]) was 90.8 nM and 118 nM and 77.8 nM and the “Plasma concentration 24 h” value (in vivo; [4]) was 14.8 nM and 18.2 nM and 13.3 nM. The AUC0-inf/Dose (in vivo; [4]) was 7860 h nM/(nmol kg-1) and 10400 h nM/(nmol kg-1) and 8420 h nM/(nmol kg-1), the AUC0-t/Dose (in vivo; [4]) was 7540 h nM/(nmol kg-1) and 10000 h nM/(nmol kg-1) and 8140 h nM/(nmol kg-1) and the CL (in vivo; [4]) was 2.1 mL/min/kg and 1.6 mL/min/kg and 2.0 mL/min/kg. The “CL PL QH” value (in vivo; [4]) was 2.4% and 1.8% and 2.2%, the Cmax/Dose (in vivo; [4]) was 5300 nM/(nmol kg-1) and 7400 nM/(nmol kg-1) and 7420 nM/(nmol kg-1) and the MRT (in vivo; [4]) was 4.5 h and 4.3 h and 3.8 h. The “Plasma concentration 0.1 h” value (in vivo; [4]) was 2440 nM and 3410 nM and 3420 nM, the “Plasma concentration 0.5 h” value (in vivo; [4]) was 1650 nM and 1900 nM and 1850 nM and the “Plasma concentration 1 h” value (in vivo; [4]) was 655 nM and 1140 nM and 855 nM. For the same compound, the “Plasma concentration 2 h” value (in vivo; [4]) was 328 nM and 402 nM and 307 nM, the “Plasma concentration 4 h” value (in vivo; [4]) was 110 nM and 144 nM and 117 nM and the Vss (in vivo; [4]) was 0.6 L/kg and 0.4 L/kg and 0.5 L/kg. For the same compound, the t1/2 (in vivo; [4]) was 6.9 h and 6.7 h and 6.6 h, the AUC0-inf/Dose (in vivo; mice, Mean) was 8900 h nM/(nmol kg-1) and the AUC0-t/Dose (in vivo; mice, Mean) was 8580 h nM/(nmol kg-1). For the same compound, the CL (in vivo; mice, Mean) was 1.9 mL/min/kg, the “CL PL QH” value (in vivo; mice, Mean) was 2.1% and the Cmax/Dose (in vivo; mice, Mean) was 6710 nM/(nmol kg-1). The MRT (in vivo; mice, Mean) was 4.2 h, the “Plasma concentration 0.1 h” value (in vivo; mice, Mean) was 3090 nM and the “Plasma concentration 0.5 h” value (in vivo; mice, Mean) was 1800 nM. For the same compound, the “Plasma concentration 1 h” value (in vivo; mice, Mean) was 883 nM, the “Plasma concentration 2 h” value (in vivo; mice, Mean) was 346 nM and the “Plasma concentration 4 h” value (in vivo; mice, Mean) was 124 nM. For the same compound, the Vss (in vivo; mice, Mean) was 0.5 L/kg, the t1/2 (in vivo; mice, Mean) was 6.7 h and the “Plasma concentration 6 h” value (in vivo; mice, Mean) was 95.5 nM. For the same compound, the “Plasma concentration 24 h” value (in vivo; mice, Mean) was 15.4 nM, the VSS (in vivo; mice, 1 mg kg-1 iv bolus) was 0.48 L/kg and the Cl (in vivo; plasma clearance, mice, 1 mg kg-1 iv bolus) was 1.90 mL/min/kg. The T1/2 (in vivo; plasma, mice, 1 mg kg-1 iv bolus) was 6.74 h, the MIC ([2]; Mycobacterium tuberculosis, M. tuberculosis H37Rv 27294, single well replicates, read-out: MIC) was 0.098 µM (≈ 0.213 µg/mL) and the MIC ([2]; Mycobacterium tuberculosis, M. tuberculosis H37Rv strain, read-out: MIC Mtb H37Rv Mean ± SD) was 0.4 ± 0.4 µM (≈ 0.868 µg/mL). The MIC ([2]; Mycobacterium tuberculosis, Mtb H37Rv (Supplementary Table 2), read-out: MIC Mtb) was 0.4 ± 0.4 µM (≈ 0.868 µg/mL), the MIC ([2]; Mycobacterium tuberculosis, Mtb H37Rv, mean ± SD, n = 3 well replicates, read-out: MIC) was 0.2 ± 0.1 µM (≈ 0.434 µg/mL) and the MIC ([2]; Mycobacterium tuberculosis, Set 1, read-out: MIC (Mtb H37Rv) Set 1) was 0.1 µM and 0.21 µg/mL. For the same compound, the MIC ([2]; Mycobacterium tuberculosis, Set 2, read-out: MIC (Mtb H37Rv) Set 2) was 0.05 µM and 0.1 µg/mL, the MIC ([2]; Mycobacterium tuberculosis, Set 3, done at a different day than Set 1 and Set 2, read-out: MIC (Mtb H37Rv) Set 3) was 0.1 µM and 0.21 µg/mL and the MIC ([2]; Mycobacterium tuberculosis, individual example (Supplementary Table 11), read-out: MIC Mtb H37Rv) was 0.1 µM and 0.2 µg/mL. The MIC ([2]; Mycobacterium tuberculosis, mean of 3 experiments +/- SD, unit taken from the sets above in the same table, read-out: MIC data (Mtb H37Rv) (+/- SD)) was 0.08 µM and 0.17 µg/mL, the MIC ([2]; individual measurements (source data), listed as 8 (UdSBI-0545), read-out: Mtb MIC) was 0.780 µM (2×) and 0.097 µM (2×) and the MIC (Msm 607; Mycolicibacterium smegmatis, 607, read-out: MIC Msm 607) was 1.9 ± 0.9 µM (≈ 4.12 µg/mL). The MIC (Msm 607; Mycolicibacterium smegmatis, 607, read-out: MIC Msm #607, individual example (Supplementary Table 11)) was 1.6 µM and 3.4 µg/mL, the MIC (Msm 607; Mycolicibacterium smegmatis, ATCC607, Set-1, read-out: MIC (Msm ATCC607) Set-1) was 3.12 µM and 6.78 µg/mL and the MIC (Msm 607; Mycolicibacterium smegmatis, ATCC607, Set-2, read-out: MIC (Msm ATCC607) Set-2) was 1.56 µM and 3.39 µg/mL. For the same compound, the MIC (Msm 607; Mycolicibacterium smegmatis, ATCC607, Set-3, done at a different day than Set 1 and Set 2, read-out: MIC (Msm ATCC607) Set-3) was 1.56 µM and 3.39 µg/mL, the MIC (Msm 607; Mycolicibacterium smegmatis, ATCC607, mean of 3 experiments ± SD, read-out: MIC including standard deviations (Msm ATCC607)) was 2.08 µM and 4.5 µg/mL and the MIC (Mtb # 11291; Mycobacterium tuberculosis, mean, n = 2 well replicates, read-out: MIC Mtb # 11291) was < 0.1 µM and < 0.2 µg/mL. The MIC (Mtb # 11291; Mycobacterium tuberculosis, read-out: MIC Mtb # 11291, single well replicates) was < 0.1 µM and < 0.21 µg/mL, the “MIC Mtb # 11291” value (Mtb # 11291; single well replicates, listed as 8 (UdSBAI-0545)) was under 0.21 µg/mL and the MIC (Mtb # 11291; single well replicates, listed as 8 (UdSBAI-0545), read-out: MIC Mtb # 11291) was under 0.1 µM.
